Measured values: ChEMBL document CHEMBL3886941 (2016)

The compounds below were run against Transient receptor potential M8 protein (Canis lupus familiaris, UniProt Q1A7N1) (assay: Functional Assay: The functional activity of compounds of the formula (I) was determined by measuring changes in intracellular calcium concentration using a Ca2+-sensitive fluorescent dye. The changes in fluorescent signal were monitored by a fluorescence plate reader, either a FLIPR (Molecular Devices) or FDSS (Hamamatsu). Increases in intracellular Ca2+ concentration were readily detected upon activation with icilin.At 24 hrs prior to assay, HEK293 cells stably expressing canine TRPM8 were seeded in culture medium in black wall, clear-base poly-D-lysine coated 384-well plates (BD Biosciences, NJ, USA) and grown overnight in 5% CO2 at 37° C. On assay day, growth media was removed and cells were loaded with Calcium 3 Dye (Molecular Devices) for 35 min at 37° C., under 5% CO2 and then for 25 min at room temperature and atmosphere. Subsequently, cells were tested for agonist-induced increases in intracellular Ca2+ levels using FLIPR or FDSS. Cells were challenged with a compound of the Formula (I) (at varying concentrations) and intracellular Ca2+ was measured for 5 min prior to the addition of icilin to all wells to achieve a final concentration that produces approximately an 80% maximal response. EC50 or IC50 values for compounds of the present invention were determined from eight-point dose-response studies.).
Sequence of Transient receptor potential M8 protein (Q1A7N1 whole entry): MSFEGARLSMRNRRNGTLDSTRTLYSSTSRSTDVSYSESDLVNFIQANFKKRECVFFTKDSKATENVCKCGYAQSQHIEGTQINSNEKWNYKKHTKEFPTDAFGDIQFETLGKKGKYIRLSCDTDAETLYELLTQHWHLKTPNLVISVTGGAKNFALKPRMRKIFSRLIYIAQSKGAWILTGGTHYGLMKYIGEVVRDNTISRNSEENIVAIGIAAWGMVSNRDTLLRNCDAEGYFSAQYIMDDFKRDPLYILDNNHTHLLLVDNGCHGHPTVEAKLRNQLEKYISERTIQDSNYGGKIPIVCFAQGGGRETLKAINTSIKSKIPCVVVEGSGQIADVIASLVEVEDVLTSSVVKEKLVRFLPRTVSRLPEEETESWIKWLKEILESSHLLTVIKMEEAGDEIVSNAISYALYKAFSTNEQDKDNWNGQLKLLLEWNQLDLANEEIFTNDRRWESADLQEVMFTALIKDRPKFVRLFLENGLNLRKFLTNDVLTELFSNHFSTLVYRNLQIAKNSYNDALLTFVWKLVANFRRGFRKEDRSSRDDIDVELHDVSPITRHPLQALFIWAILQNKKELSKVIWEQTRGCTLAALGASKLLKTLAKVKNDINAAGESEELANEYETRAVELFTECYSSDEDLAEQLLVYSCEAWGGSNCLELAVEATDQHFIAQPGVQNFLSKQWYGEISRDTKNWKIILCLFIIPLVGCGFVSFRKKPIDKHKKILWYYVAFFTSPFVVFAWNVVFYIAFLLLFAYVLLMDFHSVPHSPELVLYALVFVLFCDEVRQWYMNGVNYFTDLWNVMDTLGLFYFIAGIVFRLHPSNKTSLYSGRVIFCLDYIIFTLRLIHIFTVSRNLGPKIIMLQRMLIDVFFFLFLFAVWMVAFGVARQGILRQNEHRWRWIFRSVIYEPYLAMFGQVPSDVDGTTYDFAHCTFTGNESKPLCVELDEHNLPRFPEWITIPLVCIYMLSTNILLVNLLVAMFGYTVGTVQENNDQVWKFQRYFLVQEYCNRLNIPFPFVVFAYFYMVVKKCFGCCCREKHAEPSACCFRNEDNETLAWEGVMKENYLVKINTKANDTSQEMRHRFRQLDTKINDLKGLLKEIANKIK
Assay type: cell-based

IC50 [nM]	SMILES
10.4	O=[N+]([O-])c1cccc(CN(c2sc3ccccc3c2Br)S(=O)(=O)c2ccccc2)c1
38	CCCCN(c1sc2ccccc2c1C(C)O)S(=O)(=O)CC (centres undefined)
4	Cc1c(N(Cc2ccccc2)S(=O)(=O)c2ccc(C(=O)O)cc2)sc2ccccc12
24	O=S(=O)(c1ccccc1)N(CCc1ccccc1)c1sc2ccccc2c1Cl
15	O=S(=O)(CC(F)(F)F)N(Cc1ccc(F)c(C(F)(F)F)c1)c1sc2ccccc2c1CO
18.1	O=c1[nH]c(-c2ccc(S(=O)(=O)N(CCC(F)(F)F)c3sc4ccccc4c3Br)cc2)no1
6	COc1ccc(CN(c2sc3ccccc3c2C)S(=O)(=O)c2ccc(C(=O)O)cc2)cc1OC
9	Cc1c(N(Cc2cc(Cl)ccc2Cl)S(=O)(=O)c2ccc(C(=O)O)cc2)sc2ccccc12
2	Cc1c(N(Cc2ccc3c(c2)OC(F)(F)O3)S(=O)(=O)c2ccc(C(=O)O)cc2)sc2ccccc12
7.9	O=c1[nH]c(-c2ccc(S(=O)(=O)N(CCCCC(F)(F)F)c3sc4ccccc4c3Br)cc2)no1
53	CCCN(c1sc2ccccc2c1C)S(=O)(=O)c1ccc(C(=O)O)cc1
19	O=S(=O)(c1ccc(-c2nnn[nH]2)cc1)N(CCC(F)(F)F)c1sc2ccccc2c1Br
4.1	CCS(=O)(=O)N(Cc1ccc(F)c(OC)c1)c1sc2ccccc2c1C(C)(C)O
6	O=S(=O)(c1ccc(-c2nnn[nH]2)cc1)N(CCC1CC1)c1sc2ccccc2c1Br
24.1	COC(=O)CCS(=O)(=O)N(CCC(F)(F)F)c1sc2ccccc2c1C
6	O=S(=O)(c1cccs1)N(Cc1ccc(F)c(C(F)(F)F)c1)c1sc2ccccc2c1Cl
8.8	O=S(=O)(c1ccc(-c2nnn[nH]2)cc1)N(CCCCC(F)(F)F)c1sc2ccccc2c1Br
205	CC(C)(C)OC(=O)N1CCCC1CN(c1sc2ccccc2c1Cl)S(=O)(=O)c1ccccc1 (centres undefined)

SMILES	IC50 [nM]
CCS(=O)(=O)N(Cc1ccc(F)c(F)c1)c1sc2ccccc2c1C(C)=O	15
